According to US6737383B1, “Herbicidal oxadiazolidines” (priority 1999, dated 2004):

Experiments:
Details in all cases: Preemergence
giant foxtail = test: Test B pre/postemergence giant foxtail; format: in vivo, Setaria faberii
Method in brief: (§1)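 Response is a visual 0-to-10 score relative to untreated plants, where 0 means no effect and 10 means complete control, taken twelve to sixteen days after application. Treatments went onto soil at planting and onto foliage of 1- to 4-leaf plants, using a surfactant-containing non-phytotoxic solvent.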

soybean = test: Test B pre/postemergence soybean; format: in vivo, Glycine max
Method in brief: as §1

morningglory = test: Test B pre/postemergence morningglory; format: in vivo, Ipomoea hederacea
Method in brief: as §1

wild oat = test: Test B pre/postemergence wild oat; format: in vivo, Avena fatua
Method in brief: as §1

surinam grass = test: Test B pre/postemergence surinam grass; format: in vivo, Brachiaria decumbens
Method in brief: as §1

pigweed = test: Test B pre/postemergence pigweed; format: in vivo, Amaranthus retroflexus
Method in brief: as §1

sugar beet = test: Test B pre/postemergence sugar beet; format: in vivo, Beta vulgaris
Method in brief: as §1

bedstraw = test: Test B pre/postemergence bedstraw; format: in vivo, Galium aparine
Method in brief: as §1

corn = test: Test B pre/postemergence corn; format: in vivo, Zea mays
Method in brief: as §1

purple nutsedge = test: Test B pre/postemergence purple nutsedge; format: in vivo, Cyperus rotundus
Method in brief: as §1

rape = test: Test B pre/postemergence rape; format: in vivo, Brassica napus
Method in brief: as §1

crabgrass = test: Test B pre/postemergence crabgrass; format: in vivo, Digitaria sanguinalis
Method in brief: as §1

velvetleaf = test: Test B pre/postemergence velvetleaf; format: in vivo, Abutilon theophrasti
Method in brief: as §1

blackgrass = test: Test B pre/postemergence blackgrass; format: in vivo, Alopecurus myosuroides
Method in brief: as §1

cocklebur = test: Test B pre/postemergence cocklebur; format: in vivo, Xanthium strumarium
Method in brief: as §1

wheat = test: Test B pre/postemergence wheat; format: in vivo, Triticum aestivum
Method in brief: as §1

[1] = Rate 62 g/ha, scale of 0 to 10 where 0 is no effect and 10 is complete control
[2] = Rate 125 g/ha, scale of 0 to 10 where 0 is no effect and 10 is complete control
[3] = Rate 250 g/ha, scale 0 to 10 (0 no effect, 10 complete control)
[4] = Rate 500 g/ha, scale of 0 to 10 where 0 is no effect and 10 is complete control
[5] = Rate 250 g/ha, scale 0 (no effect) to 10 (complete control)
[6] = Rate 500 g/ha, scale 0 to 10 (0 no effect, 10 complete control)
[7] = Rate 1000 g/ha, scale 0 to 10 (0 no effect, 10 complete control)

CC(C)N(C(=O)n1oc(=O)n(C(C)C(=S)N(C)C)c1=O)c1ccccc1 (centres unmarked) [Compound 704]
Giant foxtail plant response rating (giant foxtail; [1]): 4
Plant response rating, Giant foxtail (giant foxtail; [2]): 7
Soybean plant response rating (soybean; [1]): 0
Plant response rating, Soybean (soybean; [2]): 0
Morningglory plant response rating (morningglory; [1]): 0
Plant response rating, Morningglory (morningglory; [2]): 0
Wild oats plant response rating (wild oat; [1]): 0
Plant response rating, Wild oats (wild oat; [2]): 0
B. signalgrass plant response rating (surinam grass; [1]): 2
Plant response rating, B. signalgrass (surinam grass; [2]): 5
Plant response rating, B. signalgrass (surinam grass; [3]): 8
Plant response rating, B. signalgrass (surinam grass; [4]): 9
Redroot pigweed plant response rating (pigweed; [1]): 0
Plant response rating, Redroot pigweed (pigweed; [2]): 5
Sugarbeets plant response rating (sugar beet; [1]): 0
Plant response rating, Sugarbeets (sugar beet; [2]): 3
Bedstraw plant response rating (bedstraw; [1]): 0
Plant response rating, Bedstraw (bedstraw; [2]): 0
Plant response rating, Bedstraw (bedstraw; [3]): 0
Corn plant response rating (corn; [1]): 0
Plant response rating, Corn (corn; [2]): 0
Plant response rating, Corn (corn; [3]): 0
Nutsedge plant response rating (purple nutsedge; [1]): 0
Plant response rating, Nutsedge (purple nutsedge; [2]): 0
Rape plant response rating (rape; [1]): 0
Plant response rating, Rape (rape; [2]): 0
Crabgrass plant response rating (crabgrass; [1]): 5
Plant response rating, Crabgrass (crabgrass; [2]): 8
Plant response rating, Crabgrass (crabgrass; [3]): 8
Velvetleaf plant response rating (velvetleaf; [1]): 0
Plant response rating, Velvetleaf (velvetleaf; [2]): 0
Blackgrass plant response rating (blackgrass; [1]): 2
Plant response rating, Blackgrass (blackgrass; [2]): 6
Plant response rating, Blackgrass (blackgrass; [3]): 10
Plant response rating, Blackgrass (blackgrass; [4]): 10
Cocklebur plant response rating (cocklebur; [1]): 0
Plant response rating, Cocklebur (cocklebur; [2]): 0
Plant response rating, Cocklebur (cocklebur; [3]): 0
Plant response rating, Cocklebur (cocklebur; [4]): 0
Wheat plant response rating (wheat; [1]): 0
Plant response rating, Wheat (wheat; [2]): 0

COC(=O)C(c1ccccc1)n1c(=O)on(C(=O)N(c2ccccc2)C(C)C)c1=O (centres unmarked) [Compound 723]
Plant response rating, Giant foxtail (giant foxtail; [2]): 7
Giant foxtail plant response rating (giant foxtail; [5]): 9
Giant foxtail plant response rating (giant foxtail; [6]): 10
Plant response rating, Giant foxtail (giant foxtail; [7]): 10
Plant response rating, Soybean (soybean; [2]): 0
Soybean plant response rating (soybean; [5]): 0
Soybean plant response rating (soybean; [6]): 0
Plant response rating, Soybean (soybean; [7]): 0
Plant response rating, Morningglory (morningglory; [2]): 0
Morningglory plant response rating (morningglory; [5]): 0
Morningglory plant response rating (morningglory; [6]): 0
Plant response rating, Morningglory (morningglory; [7]): 0
Plant response rating, Wild oats (wild oat; [2]): 0
Wild oats plant response rating (wild oat; [5]): 0
Wild oats plant response rating (wild oat; [6]): 0
Plant response rating, Wild oats (wild oat; [7]): 8
Plant response rating, B. signalgrass (surinam grass; [2]): 0
B. signalgrass plant response rating (surinam grass; [5]): 2
B. signalgrass plant response rating (surinam grass; [6]): 2
Plant response rating, B. signalgrass (surinam grass; [7]): 6
Plant response rating, Redroot pigweed (pigweed; [2]): 0
Redroot pigweed plant response rating (pigweed; [5]): 0
Redroot pigweed plant response rating (pigweed; [6]): 0
Plant response rating, Redroot pigweed (pigweed; [7]): 5
Plant response rating, Sugarbeets (sugar beet; [2]): 0
Sugarbeets plant response rating (sugar beet; [5]): 0
Sugarbeets plant response rating (sugar beet; [6]): 0
Plant response rating, Sugarbeets (sugar beet; [7]): 0
Plant response rating, Bedstraw (bedstraw; [2]): 0
Bedstraw plant response rating (bedstraw; [5]): 0
Bedstraw plant response rating (bedstraw; [6]): 0
Plant response rating, Bedstraw (bedstraw; [7]): 0
Plant response rating, Corn (corn; [2]): 0
Corn plant response rating (corn; [5]): 0
Corn plant response rating (corn; [6]): 0
Plant response rating, Corn (corn; [7]): 0
Plant response rating, Nutsedge (purple nutsedge; [2]): 0
Nutsedge plant response rating (purple nutsedge; [5]): 0
Plant response rating, Nutsedge (purple nutsedge; [7]): 0
Plant response rating, Rape (rape; [2]): 0
Rape plant response rating (rape; [5]): 0
Rape plant response rating (rape; [6]): 0
Plant response rating, Rape (rape; [7]): 2
Plant response rating, Crabgrass (crabgrass; [2]): 2
Crabgrass plant response rating (crabgrass; [5]): 2
Crabgrass plant response rating (crabgrass; [6]): 9
Plant response rating, Crabgrass (crabgrass; [7]): 9
Plant response rating, Velvetleaf (velvetleaf; [2]): 0
Velvetleaf plant response rating (velvetleaf; [5]): 0
Velvetleaf plant response rating (velvetleaf; [6]): 0
Plant response rating, Velvetleaf (velvetleaf; [7]): 0
Plant response rating, Blackgrass (blackgrass; [2]): 0
Blackgrass plant response rating (blackgrass; [5]): 0
Blackgrass plant response rating (blackgrass; [6]): 2
Plant response rating, Blackgrass (blackgrass; [7]): 6
Plant response rating, Cocklebur (cocklebur; [2]): 0
Cocklebur plant response rating (cocklebur; [5]): 0
Cocklebur plant response rating (cocklebur; [6]): 0
Plant response rating, Cocklebur (cocklebur; [7]): 0
Plant response rating, Wheat (wheat; [2]): 0
Wheat plant response rating (wheat; [5]): 0
Wheat plant response rating (wheat; [6]): 0
Plant response rating, Wheat (wheat; [7]): 0
